Our source for the Ki values is patent US20110021565A1, “PIPERIDINE DERIVATIVES AS NK3 ANTAGONISTS” (priority 2007, published 2011).

The assay addresses T1, recombinant human NK3 receptor (Homo sapiens, UniProt P29371).
T1 construct: expressed in transfected cells; host or cells: HEK293 cells, transient expression; membrane preparation
T1 sequence (P29371 1-465): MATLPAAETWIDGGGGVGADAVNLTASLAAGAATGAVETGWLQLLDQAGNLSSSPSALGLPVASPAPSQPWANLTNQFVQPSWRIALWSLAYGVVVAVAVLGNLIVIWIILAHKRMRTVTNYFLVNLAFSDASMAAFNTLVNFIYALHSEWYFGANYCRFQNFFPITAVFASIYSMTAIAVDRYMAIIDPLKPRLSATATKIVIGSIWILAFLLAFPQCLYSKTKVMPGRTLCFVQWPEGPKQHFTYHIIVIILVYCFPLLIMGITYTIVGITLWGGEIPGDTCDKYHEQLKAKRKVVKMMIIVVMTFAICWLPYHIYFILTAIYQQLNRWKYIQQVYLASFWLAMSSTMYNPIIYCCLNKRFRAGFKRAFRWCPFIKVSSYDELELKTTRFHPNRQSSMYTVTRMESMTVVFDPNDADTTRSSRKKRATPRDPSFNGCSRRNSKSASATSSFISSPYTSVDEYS
In words: [3H]SR142801 competition binding assay. The method, then: [^3H]SR142801 Competition Binding Assay
hNK3 receptor binding experiment were performed using [^3H]SR142801 (Catalog No. TRK1035, specific activity: 74.0 Ci/mmol, Amersham, GE Healthcare UK limited, Buckinghamshire, UK) and membrane isolated from HEK293 cells transiently expressing recombinant human NK3 receptor. After thawing, the membrane homogenates were centrifuged at 48,000×g for 10 min at 4° C., the pellets were resuspended in the 50 mM Tris-HCl, 4 mM MnCl2, 1 μM phosphoramidon, 0.1% BSA binding buffer at pH 7.4 to a final assay concentration of 5 μg protein/well. For inhibition experiments, membranes were incubated with [^3H]SR142801 at a concentration equal to KD value of radioligand and 10 concentrations of the inhibitory compound (0.0003-10 μM) (in a total reaction volume of 500 μl) for 75 min at room temperature (RT). At the end of the incubation, membranes were filtered onto unitfilter (96-well white microplate with bonded GF/C filter preincubated 1 h in 0.3% PEI+0.3% BSA, Packard BioScience, Meriden, Conn.) with a Filtermate 196 harvester (Packard BioScience) and washed 4 times with ice-cold 50 mM Tris-HCl, pH 7.4 buffer. Nonspecific binding was measured in the presence of 10 μM SB222200 for both radioligands. The radioactivity on the filter was counted (5 min) on a Packard Top-count microplate scintillation counter with quenching correction after addition of 45 μl of microscint 40 (Canberra Packard S. A., Zurich, Switzerland) and shaking for 1 h. Inhibition curves were fitted according to the Hill equation: y=100/(1+(x/IC50)^nH), where nH=slope factor using Excel-fit 4 software ([…]). IC50 values were derived from the inhibition curve and the affinity constant (IQ values were calculated using the Cheng-Prussoff equation Ki=IC50/(1+[L]/KD) where [L] is the concentration of radioligand and KD is its dissociation constant at the receptor, derived from the saturation isotherm. All experiments were performed in duplicate and the mean±standard error (SEM) of the individual Ki values was calculated.

The mark [1] stands for this setting: [3H]SR142801, membranes of HEK293 cells transiently expressing recombinant human NK3 receptor, read-out: hNK3 Ki.
Setting [2] is: representative compounds, [3H]SR142801, HEK293 membranes, human NK3 receptor, read-out: Ki NK3 h.

Counter-ions that a name gives are not always drawn. Like-named read-outs stand apart in the source and are kept apart here.

Regarding `CN(Cc1ccc(F)c(C(F)(F)F)c1)C(=O)C(C)(CCN1CCC(N2CCCC2=O)CC1)c1ccc(Cl)c(Cl)c1` (single isomer, unassigned) [Example 118, (S or R)-2-(3,4-Dichloro-phenyl)-N-(4-fluoro-3-trifluoromethyl-benzyl)-2,N-dimethyl-4-[4-(2-oxo-pyrrolidin-1-yl)-piperidin-1-yl]-butyramide; hydrochloride], the Ki under setting [1] turned out to be 171 nM.
On to `CN(Cc1ccc(F)c(C(F)(F)F)c1)C(=O)C(C)(CCN1CCC(N2CCCC2=O)CC1)c1ccc(Cl)c(Cl)c1` (single isomer, unassigned) [Example 119, (R or S)-2-(3,4-Dichloro-phenyl)-N-(4-fluoro-3-trifluoromethyl-benzyl)-2,N-dimethyl-4-[4-(2-oxo-pyrrolidin-1-yl)-piperidin-1-yl]-butyramide; hydrochloride], for which the Ki amounted to 0.8 nM under setting [1] and 0.8 nM under setting [2].
Regarding `C[C@](CCN1CCC(N2CCCC2=O)CC1)(C(=O)N[C@H](CO)c1ccc(Cl)c(Cl)c1)c1ccc(Cl)c(Cl)c1` (single isomer, unassigned) [Example 120, (R or S)-2-(3,4-Dichloro-phenyl)-N-[(S or R)-1-(3,4-dichloro-phenyl)-2-hydroxy-ethyl]-2-methyl-4-[4-(2-oxo-pyrrolidin-1-yl)-piperidin-1-yl]-butyramide], the Ki by setting is: under setting [1], 2 nM; under setting [2], 2 nM.
Turning to `CC(=O)N(C)C1CCN(CCC(C)(C(=O)N(C)Cc2ccc(F)c(C(F)(F)F)c2)c2ccc(Cl)c(Cl)c2)CC1` (single isomer, unassigned) [Example 121, (S or R)-4-[4-(Acetyl-methyl-amino)-piperidin-1-yl]-2-(3,4-dichloro-phenyl)-N-(4-fluoro-3-trifluoromethyl-benzyl)-2,N-dimethyl-butyramide], the inhibition constant (Ki) under setting [1] was 173 nM.
As for `CC(=O)N(C)C1CCN(CCC(C)(C(=O)N(C)Cc2ccc(F)c(C(F)(F)F)c2)c2ccc(Cl)c(Cl)c2)CC1` (single isomer, unassigned) [Example 122, (R or S)-4-[4-(Acetyl-methyl-amino)-piperidin-1-yl]-2-(3,4-dichloro-phenyl)-N-(4-fluoro-3-trifluoromethyl-benzyl)-2,N-dimethyl-butyramide], the inhibition constant (Ki) was determined as 1.5 nM under setting [1] and 1.5 nM under setting [2].
`CN(Cc1ccc(C(F)(F)F)c(F)c1)C(=O)C(C)(CCN1CCC(NS(C)(=O)=O)CC1)c1ccc(Cl)c(Cl)c1` (single isomer, unassigned) [Example 123, (S or R)-2-(3,4-Dichloro-phenyl)-N-(3-fluoro-4-trifluoromethyl-benzyl)-4-(4-methanesulfonylamino-piperidin-1-yl)-2,N-dimethyl-butyramide]: the inhibitory constant (Ki) under setting [1] came to 800 nM.
Consider `CN(Cc1ccc(C(F)(F)F)c(F)c1)C(=O)C(C)(CCN1CCC(NS(C)(=O)=O)CC1)c1ccc(Cl)c(Cl)c1` (single isomer, unassigned) [Example 124, (R or S)-2-(3,4-Dichloro-phenyl)-N-(3-fluoro-4-trifluoromethyl-benzyl)-4-(4-methanesulfonylamino-piperidin-1-yl)-2,N-dimethyl-butyramide], for which, under setting [1], the Ki came to 18.8 nM.
Take `CC(CCN1CCC(N2CCCC2=O)CC1)(C(=O)N[C@@H](CO)c1ccc(F)cc1)c1ccc(Cl)c(Cl)c1` (single isomer, unassigned) [Example 129, 2-(3,4-Dichloro-phenyl)-N-[(R)-1-(4-fluoro-phenyl)-2-hydroxy-ethyl]-2-(R or S) methyl-4-[4-(2-oxo-pyrrolidin-1-yl)-piperidin-1-yl]-butyramide]: the Ki runs as follows: under setting [1], 8.2 nM; under setting [2], 8.2 nM.
As for `CC(CCN1CCC(N2CCCC2=O)CC1)(C(=O)N[C@@H](CO)c1ccc(F)cc1)c1ccc(Cl)c(Cl)c1` (single isomer, unassigned) [Example 130, 2-(3,4-Dichloro-phenyl)-N-[(R)-1-(4-fluoro-phenyl)-2-hydroxy-ethyl]-2-(S or R) methyl-4-[4-(2-oxo-pyrrolidin-1-yl)-piperidin-1-yl]-butyramide], the Ki under setting [1] was 101 nM.
In the case of `COCCN(C(C)=O)C1CCN(CCC(C)(C(=O)N[C@@H](CO)c2ccc(F)cc2)c2ccc(Cl)c(Cl)c2)CC1` (single isomer, unassigned) [Example 150, 4-{4-[Acetyl-(2-methoxy-ethyl)-amino]-piperidin-1-yl}-2-(3,4-dichloro-phenyl)-N-[(R)-1-(4-fluoro-phenyl)-2-hydroxy-ethyl]-2-(R or S) methyl-butyramide], the Ki by setting is: under setting [1], 1.7 nM; under setting [2], 1.7 nM.
`COCCN(C(C)=O)C1CCN(CCC(C)(C(=O)N[C@@H](CO)c2ccc(F)cc2)c2ccc(Cl)c(Cl)c2)CC1` (single isomer, unassigned) [Example 151, 4-{4-[Acetyl-(2-methoxy-ethyl)-amino]-piperidin-1-yl}-2-(3,4-dichloro-phenyl)-N-[(R)-1-(4-fluoro-phenyl)-2-hydroxy-ethyl]-2-(S or R) methyl-butyramide]: the Ki under setting [1] came out at 21.1 nM.
Turning to `CN(C1CCN(CCC(C)(C(=O)N[C@@H](CO)c2ccc(Cl)c(Cl)c2)c2ccc(Cl)c(Cl)c2)CC1)S(C)(=O)=O` (single isomer, unassigned; diastereoisomer 1) [Example 49, 2-(3,4-Dichloro-phenyl)-N-[1-(3,4-dichloro-phenyl)-2-hydroxy-ethyl]-4-[4-(methanesulfonyl-methyl-amino)-piperidin-1-yl]-2-methyl-butyramide; diastereoisomer 1], the Ki runs as follows: under setting [1], 5.5 nM; under setting [2], 5.5 nM.
On to `CCN(C1CCN(CCC(C)(C(=O)N[C@@H](CO)c2ccc(Cl)c(Cl)c2)c2ccc(Cl)c(Cl)c2)CC1)S(C)(=O)=O` (single isomer, unassigned; diastereoisomer 1) [Example 79, 2-(3,4-Dichloro-phenyl)-N-[1-(3,4-dichloro-phenyl)-2-hydroxy-ethyl]-4-[4-(ethyl-methanesulfonyl-amino)-piperidin-1-yl]-2-methyl-butyramide; diastereoisomer 1], for which the inhibition constant Ki under setting [1] worked out at 1.5 nM and the Ki under setting [2] was determined as 1.5 nM.
As for `CC(CCN1CCC(N2CCCC2=O)CC1)(C(=O)N[C@@H](CO)c1ccc(Cl)c(Cl)c1)c1ccc(Cl)c(Cl)c1` (single isomer, unassigned; diastereoisomer 1) [Example 94, 2-(3,4-Dichloro-phenyl)-N-[-1-(3,4-dichloro-phenyl)-2-hydroxy-ethyl]-2-methyl-4-[4-(2-oxo-pyrrolidin-1-yl)-piperidin-1-yl]-butyramide; diastereoisomer 1], the inhibition constant (Ki) reads like this: under setting [1], 3 nM; under setting [2], 3 nM.
Turning to `CC(=O)N(C)C1CCN(CCC(C)(C(=O)N[C@@H](CO)c2ccc(Cl)c(Cl)c2)c2ccc(Cl)c(Cl)c2)CC1` (single isomer, unassigned; diastereoisomer 1) [Example 109, 4-[4-(Acetyl-methyl-amino)-piperidin-1-yl]-2-(3,4-dichloro-phenyl)-N-[1-(3,4-dichloro-phenyl)-2-hydroxy-ethyl]-2-methyl-butyramide; diastereoisomer 1], the Ki was 5.6 nM under setting [1] and 5.6 nM under setting [2].
As to `CC(=O)N(C)C1CCN(CCC(C)(C(=O)NC(CO)c2ccc(F)cc2)c2ccc(Cl)c(Cl)c2)CC1` (single isomer, unassigned; diastereoisomer 1) [Example 138, 4-[4-(Acetyl-methyl-amino)-piperidin-1-yl]-2-(3,4-dichloro-phenyl)-N-[1-(4-fluoro-phenyl)-2-hydroxy-ethyl]-2-methyl-butyramide (diastereoisomer 1)], under setting [1], the Ki was 29.3 nM.
On the same count and under the same terms, the value for `CC(=O)N(C1CC1)C1CCN(CCC(C)(C(=O)N[C@@H](CO)c2ccc(F)cc2)c2ccc(Cl)c(Cl)c2)CC1` (single isomer, unassigned; diastereoisomer 1) [Example 140, 4-[4-(Acetyl-cyclopropyl-amino)-piperidin-1-yl]-2-(3,4-dichloro-phenyl)-N-[1-(4-fluoro-phenyl)-2-hydroxy-ethyl]-2-methyl-butyramide (diastereoisomer 1)] was 33.3 nM.
